Values of other authors, collected in patent publication US20060154981A1, “Method of reducing intraocular pressure and treating glaucoma” (Alcon, Inc., priority 2005, published 2006).

Key:
neutrophils = details: compared with lipoxin A4
IOP = details: rabbits

| SMILES | Inhibition of LTB4-induced chemotaxis of neutrophils (neutrophils) | IOP lowering (IOP) |
| --- | --- | --- |
| CCCCC[C@H](O)[C@H](O)CO [compound 2] | inhibit LTB4-induced chemotaxis of neutrophils as potently as lipoxin A4 | – |
| CCCCC[C@H](O)/C=C/C=C\C=C\C=C\[C@@H](O)[C@@H](O)CCCC(=O)OC [methyl ester of lipoxin A4] | – | reported to lower IOP in rabbits |
